This is an account of results in patent US10463695B2, “Methods and compositions for use in the prevention, treatment and/or alleviation of cancer” (priority 2016, dated 2019).

The nature of data set [1]: Whole body autoradiography of pregnant mice, cadmium isotope 109Cd. Format: in vivo. The conditions noted are these: for Passage of Cd through the placenta: pregnant mice, intravenous 109CdCl2, about 18th day after conception, autoradiography. On the procedure:
(§1) The present inventor commissioned studies where the function of the placenta was investigated using radioactive isotopes of cadmium and zinc. Pregnant female mice were injected intravenously with 8 μc of ^109CdCl2 obtained from Philips Ltd., Eindhoven, Holland. The injection of isotope was made into the tail vein according to standard practice. The mice were injected so that the day of sacrifice coincided approximately with the 18th day after conception, determined by the presence of a vaginal plug after mating. The mice were sacrificed under ether anesthesia by immersion in a mixture of acetone and liquid carbon dioxide (about −80 C). The mice were then sagittally sectioned in a cold room at −10 C according to standard practice, and the sections obtained were affixed to cellulose tape.
(§2) Each section was then apposed to X-ray film together with an isotope reference standard. The sections and films were kept at −10 C until exposure was complete. The determination of the order of cadmium and zinc concentration in different organs was made through densitometric comparison of the autoradiographic exposure caused by the organs, compared to the reference standard.

For data set [2] the following is noted: cited from earlier work.
Data set [3] in a line: Whole body autoradiography of pregnant mice, zinc isotope 65Zn. Format: in vivo. On the procedure:
as §1, §2

The structures appear in SMILES notation. Read-outs that look alike come from different tables or passages of the source.

For `[Cd]` [Cd, cadmium], the “Passage of Cd through the placenta” value in data set [1] is listed as “did not pass the placental barrier”; in data set [1] (listed as 109Cd), “no cadmium has passed through the placenta into the fetus”. Besides, the “Tissue enrichment of 109Cd” value in data set [1] (pregnant mouse, autoradiograph, FIG. 3) was “enriched in the liver and kidney, and to some extent in placental tissue”. In addition, the “Concentration at which acute toxicity is observed” value in data set [2] (cadmium in blood) was “around 50 μng/ml”. Further, in data set [2] (cadmium, information supplied by VITA Laboratorio), the “Threshold at which medical treatment needs to be initiated” value is 50 nmol/L.
As for `[Zn]` [Zn, zinc], the “Passage of Zn through the placenta” value in data set [3] was “passed through the placenta and was enriched in the fetal tissue”; in data set [3] (listed as 65Zn), “capable of passing through the placenta”.
